Measured values from US20170165293A1, “METHOD AND APPARATUS FOR SCAVENGING PLASMA FREE HEMOGLOBIN” (GENO LLC, priority 2015, published 2017).
Read-outs that look alike come from different tables or passages of the source.

Tests used:
[1] = tested on: polymicrobial sepsis-induced lung injury; settings: in vivo
[2] = tested on: brain ischemia-reperfusion injury; settings: acute rat model, focal ischemia-reperfusion, inhaled; cited from earlier work
chrondrocytes = settings: cited from earlier work
LPS-induced lung injury = format: in vivo, mice
cell-free Hb = cell-free Hb (Homo sapiens, UniProt P68871+P69905); settings: cited from earlier work
Sequence of cell-free Hb (P69905 2-142 limits assumed): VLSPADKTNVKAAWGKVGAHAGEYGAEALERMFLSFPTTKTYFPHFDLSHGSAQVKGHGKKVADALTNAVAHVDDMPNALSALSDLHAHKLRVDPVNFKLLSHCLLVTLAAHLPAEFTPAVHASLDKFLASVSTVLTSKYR
Sequence of cell-free Hb (P68871 2-147 limits assumed): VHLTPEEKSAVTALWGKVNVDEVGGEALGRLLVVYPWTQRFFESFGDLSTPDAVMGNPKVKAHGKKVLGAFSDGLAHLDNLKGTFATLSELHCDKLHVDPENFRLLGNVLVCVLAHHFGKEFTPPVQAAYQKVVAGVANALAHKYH

canines = settings: cited from earlier work; for mean SVRI compared to controls (albumin and saline) / mean MAP compared to controls (albumin and saline): 1-3 hr, after 1-hour infusion; for mean SVRI compared to controls (albumin and saline): oxyHb p<0.0001, metHb p=0.04; for mean MAP compared to controls (albumin and saline): oxyHb p<0.0001, metHb p=0.05
[3] = several time points; cited from earlier work
NO = settings: cited from earlier work; for NO consumption ability of plasma compared to controls with infused albumin and saline: samples collected after infusion, both p<0.0001
HIF = settings: cited from earlier work
[4] = tested on: free water-induced intravascular hemolysis; settings: in vivo; cited from earlier work

In the case of `[HH]` [H2, hydrogen], the “lung injury in polymicrobial sepsis” value [1] is given as “significantly attenuated”, the brain injury [2] is given as “markedly suppressed” and the “generation of hydroxyl radicals and peroxynitrite” value (chrondrocytes) is given as “selectively reduce”. The “LPS-induced pulmonary early and late NF-κB activation” value (LPS-induced lung injury; H2 and/or NO treatment) was “inhibited”, the cell apoptosis (LPS-induced lung injury; H2 and/or NO treatment) was “down-regulated” and the pulmonary inflammation (LPS-induced lung injury; H2 and/or NO treatment) was “down-regulated”. For the same molecule, the lung injury (LPS-induced lung injury; intratracheal LPS, 2% H2 and/or 20 ppm NO for 3 hours starting at 5 minutes or 3 hours after LPS) was “significantly improved”.
In the case of “cell-free Hb: cell-free hemoglobin infused with or without inhaled NO”, the “species of the cell-free Hb” value (cell-free Hb; animals breathing air (n=2)) is given as “remained predominantly oxyhemoglobin”, the SVRI (cell-free Hb; infusion of cell-free Hb) is given as “increases” and the “pulmonary vascular resistance index” value (cell-free Hb; infusion of cell-free Hb) is given as “increases”.
In the case of “oxyHb: cell-free oxyhemoglobin (Fe2+-O2) infused into animals”, the “mean SVRI compared to controls (albumin and saline)” value (canines) is listed as “significant elevations”, the “mean MAP compared to controls (albumin and saline)” value (canines) is listed as “significant elevations” and the MAP (canines; 2 hours after the oxyHb infusion ended, same rate as during the infusion) is listed as “continued to steadily increase”. For the same molecule, the “increase in MAP” value (canines; oxyHb infusion, from 0 to 3 hr, p<0.0001) was 27%, the “mean plasma nitrite levels compared to controls” value [3] was “similar” and the “increase in NO consumption ability of plasma, ranking” value (NO; among infused groups) was “highest”. The “NO consumption ability of plasma compared to controls with infused albumin and saline” value (NO) was “Elevated”.
In the case of “metHb: cell-free ferric methemoglobin (Fe3+) infused into animals”, the “mean SVRI compared to controls (albumin and saline)” value (canines) is given as “elevations”, the “mean MAP compared to controls (albumin and saline)” value (canines) is given as “elevations” and the vascular pressures (canines; cell-free metHb infusions, after being reduced to oxyHb) is given as “increase”. For the same molecule, the “clearance / stability in plasma compared with cell-free oxyHb” value (canines; in vivo) was “cleared faster and/or is less stable”, the “increase in MAP compared to the oxyHb infusions” value (canines; similar concentrations of Hb solutions over 1 hour, p=0.006) was “significantly less of an increase” and the “increase in SVRI compared to the oxyHb infusions” value (canines; similar concentrations of Hb solutions over 1 hour, p=0.04) was “significantly less of an increase”. The “correlation of metHb levels converted from infused oxyHb with changes in MAP” value (canines; throughout the experiment) was “not correlated”, the “mean plasma nitrite levels compared to controls” value [3] was “similar” and the “NO consumption by plasma relative to the infused oxyHb-containing plasma” value (NO; p=0.009) was 10 fold lower. The “NO consumption ability of plasma compared to controls with infused albumin and saline” value (NO) was “Elevated”.
For nitric oxide [inhaled NO], the “increase in SVRI on infusion of cell-free Hb” value (cell-free Hb; animals breathing NO (n=2)) is listed as “attenuated”, the “increase in pulmonary vascular resistance index on infusion of cell-free Hb” value (cell-free Hb; animals breathing NO (n=2)) is listed as “attenuated” and the “species of the cell-free Hb” value (cell-free Hb; animals breathing NO (n=2)) is listed as “converted to methemoglobin”. The “lung injury in polymicrobial sepsis” value [1] was “significantly attenuated”, the “effect on HIF” value (HIF; high doses and after 30 minutes) was “inhibitory” and the “effect on HIF” value (HIF; low dose, for 30 minutes, during hypoxia) was “stimulates”. For the same molecule, the MAP [4] was “no net effect”, the SVRI [4] was “no net effect” and the “effect of sodium nitroprusside on CI during hemolysis” value [4] was “restored”. For the same molecule, the “effect of sodium nitroprusside on SVRI during hemolysis” value [4] was “restored”, the “hypertensive effects associated with intravascular free water induced hemolysis and release of cell-free oxyHb” value [4] was “completely eliminates” and the “impairment in the ability of the kidneys to compensate for hyponatremia (serum sodium levels)” value [4] was “attenuated”. For the same molecule, the “increase in MAP caused by free water-induced intravascular hemolysis” value [4] was “attenuated”, the “increase in SVRI caused by free water-induced intravascular hemolysis” value [4] was “attenuated” and the six-hour creatinine clearance [4] was “intermediate clearance”. The systemic blood pressure [4] was “miniscule or no measurable effects”, the “total plasma Hb composition” value [4] was “predominantly methemoglobin” and the vasoconstriction [4] was “prevent vasoconstriction”. For the same molecule, the “LPS-induced pulmonary early and late NF-κB activation” value (LPS-induced lung injury; mouse, in vivo) was “inhibited”, the cell apoptosis (LPS-induced lung injury; mouse, in vivo) was “down-regulated” and the lung injury (LPS-induced lung injury; mouse, in vivo) was “significantly improved”. For the same molecule, the pulmonary inflammation (LPS-induced lung injury; mouse, in vivo) was “down-regulated”.
